Broadly, the IC50 is the concentration that inhibits the measured activity by half. In general, EC50 refers to the concentration needed to bring the measured effect to its halfway point.

Data on 21 compounds can be found in ChEMBL document CHEMBL3608268, “Re-exploring the N-phenylpicolinamide derivatives to develop mGlu4 ligands with improved affinity and in vitro microsomal stability” (Bioorg Med Chem Lett, 2015).

Data set [1] addresses T1, Metabotropic glutamate receptor 4 (Homo sapiens, UniProt Q14833). Nature of the data set: Displacement of [3H]N-(4-chloro-3-methoxyphenyl)picolinamide from human mGlu4 receptor expressed in CHO cell membranes incubated for 30 mins by liquid scintillation counting method. Background: Loss of bound radioactivity is the signal in a displacement assay; it reports binding, not function.

Data set [2] has as its target Metabotropic glutamate receptor 1 (Homo sapiens, UniProt Q13255). In words: Activity at mGlu1 receptor (unknown origin) expressed in HEK293 cells by Ca2+ mobilization assay. The format is functional, cell-based. (Calcium flux is commonly read through the fluorescence of an indicator in the cells.)
The target of data set [3] is Metabotropic glutamate receptor 6 (Homo sapiens, UniProt O15303). In words: Activity at mGlu6 receptor (unknown origin) expressed in HEK293 cells pre-treated for 15 mins before addition of EC80 concentration of reference agonist for another 15 mins by cAMP accumulation assay. The format is functional, cell-based. A general note: Changes in cAMP serve as a functional read-out for many G protein-coupled receptors.

Data set [4] has as its system Liver microsome. In words: Half life in Wistar rat liver microsomes in presence of NADPH generation system by HPLC method. The format is ADME.
In data set [5] the target is Metabotropic glutamate receptor 2 (Homo sapiens, UniProt Q14416). Nature of the data set: Activity at mGlu2 receptor (unknown origin) expressed in HEK293 cells pre-treated for 15 mins before addition of EC80 concentration of reference agonist for another 15 mins by cAMP accumulation assay. The format is functional, cell-based.
For data set [6], the target named is Metabotropic glutamate receptor 8 (Homo sapiens, UniProt O00222). In words: Activity at mGlu8 receptor (unknown origin) expressed in HEK293 cells pre-treated for 15 mins before addition of EC80 concentration of reference agonist for another 15 mins by cAMP accumulation assay. The format is functional, cell-based.
In data set [7] the target is Metabotropic glutamate receptor 5 (Homo sapiens, UniProt P41594). In words: Activity at mGlu5 receptor (unknown origin) expressed in HEK293 cells by Ca2+ mobilization assay. The format is functional, cell-based.
For data set [8] the following is noted: pampa.
Description: Effective permeability by PAMPA method
Data set [9] has as its target T1, Metabotropic glutamate receptor 4. Nature of the data set: Positive allosteric modulator activity at human mGlu4 receptor.
The target of data set [10] is Metabotropic glutamate receptor 4 (Rattus norvegicus, UniProt P31423). Nature of the data set: Positive allosteric modulator activity at rat mGlu4 receptor.
Sequence of Metabotropic glutamate receptor 4 (Rattus norvegicus, UniProt P31423) (P31423 whole entry): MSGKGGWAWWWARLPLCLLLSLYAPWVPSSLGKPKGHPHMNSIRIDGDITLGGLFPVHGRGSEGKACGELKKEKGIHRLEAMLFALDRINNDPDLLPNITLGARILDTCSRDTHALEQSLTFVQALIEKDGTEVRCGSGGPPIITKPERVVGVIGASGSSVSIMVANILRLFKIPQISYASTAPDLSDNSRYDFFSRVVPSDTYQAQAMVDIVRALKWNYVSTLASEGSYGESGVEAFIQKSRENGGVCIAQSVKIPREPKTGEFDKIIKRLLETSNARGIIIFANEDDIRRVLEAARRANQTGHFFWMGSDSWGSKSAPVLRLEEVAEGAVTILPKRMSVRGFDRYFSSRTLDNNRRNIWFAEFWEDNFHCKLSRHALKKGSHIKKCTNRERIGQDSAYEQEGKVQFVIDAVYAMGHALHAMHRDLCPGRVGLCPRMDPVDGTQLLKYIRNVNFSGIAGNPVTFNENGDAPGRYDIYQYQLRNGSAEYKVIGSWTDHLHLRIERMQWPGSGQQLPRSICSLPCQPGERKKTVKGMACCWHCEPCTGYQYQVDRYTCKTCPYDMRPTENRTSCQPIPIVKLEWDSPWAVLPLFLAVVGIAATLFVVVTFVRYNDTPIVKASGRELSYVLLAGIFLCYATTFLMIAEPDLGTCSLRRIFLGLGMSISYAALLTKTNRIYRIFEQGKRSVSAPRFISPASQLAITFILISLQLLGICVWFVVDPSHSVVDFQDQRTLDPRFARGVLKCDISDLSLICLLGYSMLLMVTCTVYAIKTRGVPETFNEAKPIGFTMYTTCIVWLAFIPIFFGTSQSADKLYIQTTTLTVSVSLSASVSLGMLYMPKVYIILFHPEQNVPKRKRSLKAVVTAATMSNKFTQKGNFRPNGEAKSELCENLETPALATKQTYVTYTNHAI

T1 sequence (Q14833 whole entry): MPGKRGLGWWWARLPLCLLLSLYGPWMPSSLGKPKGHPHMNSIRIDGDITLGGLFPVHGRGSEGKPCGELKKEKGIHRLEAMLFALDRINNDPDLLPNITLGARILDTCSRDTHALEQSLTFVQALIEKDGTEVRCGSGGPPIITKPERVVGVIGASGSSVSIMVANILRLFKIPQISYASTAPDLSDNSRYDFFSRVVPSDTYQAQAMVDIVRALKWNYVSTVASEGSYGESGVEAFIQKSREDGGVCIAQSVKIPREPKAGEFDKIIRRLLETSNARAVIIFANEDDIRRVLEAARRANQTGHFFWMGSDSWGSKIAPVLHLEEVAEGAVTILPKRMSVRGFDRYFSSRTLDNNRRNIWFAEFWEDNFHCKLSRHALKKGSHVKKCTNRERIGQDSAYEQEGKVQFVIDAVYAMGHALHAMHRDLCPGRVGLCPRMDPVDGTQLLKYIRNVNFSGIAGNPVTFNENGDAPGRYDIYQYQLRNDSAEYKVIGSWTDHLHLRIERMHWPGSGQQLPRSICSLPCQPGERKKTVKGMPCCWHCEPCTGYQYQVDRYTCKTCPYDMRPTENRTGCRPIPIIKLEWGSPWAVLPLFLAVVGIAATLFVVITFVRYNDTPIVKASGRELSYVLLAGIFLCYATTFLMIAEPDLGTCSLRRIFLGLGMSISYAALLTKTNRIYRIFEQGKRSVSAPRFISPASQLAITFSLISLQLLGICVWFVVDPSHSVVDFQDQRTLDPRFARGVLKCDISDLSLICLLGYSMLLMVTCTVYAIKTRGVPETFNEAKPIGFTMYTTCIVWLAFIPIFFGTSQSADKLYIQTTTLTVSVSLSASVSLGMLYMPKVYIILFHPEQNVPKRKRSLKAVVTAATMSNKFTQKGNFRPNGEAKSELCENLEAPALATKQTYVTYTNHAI
Sequence of Metabotropic glutamate receptor 1 (Q13255 whole entry): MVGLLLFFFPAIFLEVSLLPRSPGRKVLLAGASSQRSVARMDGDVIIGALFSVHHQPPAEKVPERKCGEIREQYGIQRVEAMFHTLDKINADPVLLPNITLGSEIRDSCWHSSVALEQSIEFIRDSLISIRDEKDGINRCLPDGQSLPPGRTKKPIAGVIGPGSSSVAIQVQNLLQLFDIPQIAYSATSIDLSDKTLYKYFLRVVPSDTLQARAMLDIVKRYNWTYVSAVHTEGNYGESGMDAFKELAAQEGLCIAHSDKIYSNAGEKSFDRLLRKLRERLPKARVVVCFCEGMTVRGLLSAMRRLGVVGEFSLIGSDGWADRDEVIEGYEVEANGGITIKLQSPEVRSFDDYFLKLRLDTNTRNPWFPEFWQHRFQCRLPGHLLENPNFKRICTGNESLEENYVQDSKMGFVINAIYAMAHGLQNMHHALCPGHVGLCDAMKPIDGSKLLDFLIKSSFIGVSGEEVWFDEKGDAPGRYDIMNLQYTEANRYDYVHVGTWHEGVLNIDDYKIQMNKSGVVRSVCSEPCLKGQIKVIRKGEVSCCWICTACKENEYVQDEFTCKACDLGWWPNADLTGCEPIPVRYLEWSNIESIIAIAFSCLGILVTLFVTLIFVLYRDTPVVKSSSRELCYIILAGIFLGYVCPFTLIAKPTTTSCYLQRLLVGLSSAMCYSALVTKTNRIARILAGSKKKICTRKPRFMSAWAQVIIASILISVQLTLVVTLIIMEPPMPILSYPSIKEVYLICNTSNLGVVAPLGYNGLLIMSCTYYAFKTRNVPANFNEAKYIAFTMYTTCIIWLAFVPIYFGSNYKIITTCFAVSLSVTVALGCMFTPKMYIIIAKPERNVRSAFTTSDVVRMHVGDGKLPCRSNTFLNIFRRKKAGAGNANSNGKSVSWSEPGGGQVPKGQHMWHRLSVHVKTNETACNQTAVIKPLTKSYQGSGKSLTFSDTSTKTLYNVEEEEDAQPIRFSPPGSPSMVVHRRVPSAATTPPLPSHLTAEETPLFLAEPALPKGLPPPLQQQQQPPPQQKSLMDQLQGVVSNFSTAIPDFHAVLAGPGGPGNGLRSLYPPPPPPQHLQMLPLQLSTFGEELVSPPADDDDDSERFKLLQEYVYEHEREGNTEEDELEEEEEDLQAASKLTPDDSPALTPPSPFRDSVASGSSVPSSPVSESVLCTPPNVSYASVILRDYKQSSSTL
Sequence of Metabotropic glutamate receptor 8 (O00222 whole entry): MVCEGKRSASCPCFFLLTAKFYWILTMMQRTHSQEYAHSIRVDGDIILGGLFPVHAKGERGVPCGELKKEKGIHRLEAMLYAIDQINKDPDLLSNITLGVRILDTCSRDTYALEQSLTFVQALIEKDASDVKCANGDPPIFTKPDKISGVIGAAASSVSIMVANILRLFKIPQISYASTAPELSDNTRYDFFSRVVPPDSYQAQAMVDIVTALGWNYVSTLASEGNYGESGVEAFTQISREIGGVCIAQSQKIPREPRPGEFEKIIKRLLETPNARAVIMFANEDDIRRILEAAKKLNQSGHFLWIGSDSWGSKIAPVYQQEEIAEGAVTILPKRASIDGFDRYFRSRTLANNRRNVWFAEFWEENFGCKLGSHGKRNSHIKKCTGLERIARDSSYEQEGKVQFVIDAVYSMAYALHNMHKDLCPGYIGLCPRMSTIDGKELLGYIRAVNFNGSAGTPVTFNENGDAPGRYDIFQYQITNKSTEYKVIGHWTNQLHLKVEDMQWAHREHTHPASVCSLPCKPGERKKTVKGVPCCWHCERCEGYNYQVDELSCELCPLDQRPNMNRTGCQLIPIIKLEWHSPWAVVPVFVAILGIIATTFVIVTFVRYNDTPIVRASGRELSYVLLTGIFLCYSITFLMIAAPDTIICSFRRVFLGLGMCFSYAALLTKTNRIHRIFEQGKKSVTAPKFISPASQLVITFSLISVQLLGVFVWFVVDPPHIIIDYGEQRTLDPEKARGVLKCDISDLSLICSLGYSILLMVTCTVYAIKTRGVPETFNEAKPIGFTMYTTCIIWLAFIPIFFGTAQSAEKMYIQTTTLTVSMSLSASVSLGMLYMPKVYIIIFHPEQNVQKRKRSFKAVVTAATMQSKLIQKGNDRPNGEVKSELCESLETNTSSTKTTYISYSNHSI
Sequence of Metabotropic glutamate receptor 6 (O15303 whole entry): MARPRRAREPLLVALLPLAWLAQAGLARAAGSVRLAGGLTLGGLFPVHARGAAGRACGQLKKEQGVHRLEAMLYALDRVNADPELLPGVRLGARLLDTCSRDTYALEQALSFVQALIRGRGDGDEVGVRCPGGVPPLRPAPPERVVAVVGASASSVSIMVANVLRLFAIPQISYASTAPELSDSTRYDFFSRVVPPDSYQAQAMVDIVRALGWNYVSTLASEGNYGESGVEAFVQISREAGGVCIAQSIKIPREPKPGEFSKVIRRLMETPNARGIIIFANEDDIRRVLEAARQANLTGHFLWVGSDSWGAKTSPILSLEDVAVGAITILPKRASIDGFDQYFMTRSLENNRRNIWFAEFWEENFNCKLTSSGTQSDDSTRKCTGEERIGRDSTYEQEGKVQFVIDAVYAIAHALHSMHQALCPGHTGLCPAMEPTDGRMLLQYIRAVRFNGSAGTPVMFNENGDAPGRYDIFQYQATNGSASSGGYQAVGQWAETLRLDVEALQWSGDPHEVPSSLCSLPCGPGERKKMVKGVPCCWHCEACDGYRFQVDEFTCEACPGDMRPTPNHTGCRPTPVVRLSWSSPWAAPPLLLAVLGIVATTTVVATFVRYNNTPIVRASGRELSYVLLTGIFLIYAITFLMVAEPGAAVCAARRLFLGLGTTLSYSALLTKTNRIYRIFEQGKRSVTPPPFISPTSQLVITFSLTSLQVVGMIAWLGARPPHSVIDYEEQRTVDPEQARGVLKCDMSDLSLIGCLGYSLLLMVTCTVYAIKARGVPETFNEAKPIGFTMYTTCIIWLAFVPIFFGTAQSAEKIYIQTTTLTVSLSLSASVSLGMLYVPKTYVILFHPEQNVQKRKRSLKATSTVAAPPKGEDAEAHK

For `N#Cc1cc(NC(=O)c2ccccn2)ccc1F`, the concentration for half-maximal inhibition (IC50) in data set [1] is 7.4 nM.
As for `O=C(Nc1cccc(OC(F)F)c1)c1cccc(F)n1`, in data set [1], the IC50 was 6.7 nM.
On the same count and under the same terms, under `N#Cc1cc(NC(=O)c2ccccn2)ccc1Cl` stands 5.3 nM.
On to `[2H]C([2H])(F)Oc1cc(NC(=O)c2ccccn2)ccc1Cl`, for which the IC50 in [2] was greater than 30000 nM; in data set [3], greater than 30000 nM; in data set [5], greater than 30000 nM; in data set [6] it was greater than 30000 nM; in data set [7], greater than 30000 nM; in data set [1] it was 3.2 nM. For the same compound, the t1/2 in data set [4] amounted to 7.4 min.
With `COc1cc(NC(=O)c2ccccn2)ccc1F`, the half-inhibitory concentration (IC50) in [1] is 31.6 nM.
`COc1cc(NC(=O)c2ccccn2)ccc1Cl`: the t1/2 in [4] is 4.9 min. For the same compound, in data set [8], the Peff was found to be 256 ×10⁻⁶ cm/s.
With `[2H]C([2H])(F)Oc1cccc(NC(=O)c2ccccn2)c1`, in data set [1], the concentration for half-maximal inhibition (IC50) came out at 3.7 nM.
Still for that read-out and setting: under `COc1cc(NC(=O)c2ccccn2)ccc1I` stands 146 nM.
In turn, `CSc1cccc(NC(=O)c2ccccn2)c1` gave an IC50 in [1] of 4.9 nM.
For the compound `N#Cc1cccc(NC(=O)c2ccccn2)c1`, the IC50 in data set [1] is 10.4 nM.
With `O=C(Nc1cccc(OC(F)F)c1)c1ccccn1`, in data set [4], the t1/2 is listed as 5.2 min. The compound also came in with a Peff in data set [8] of 214 ×10⁻⁶ cm/s.
In [9], `c1cnc(Nc2nc3c(s2)CCCc2[nH]ncc2-3)nc1` came in with an EC50 of 9 nM.
`COc1cccc(NC(=O)c2ccccn2)c1` gave a half-maximal inhibitory concentration (IC50) in [1] of 13.7 nM.
Same read-out and setting: to `COc1cc(NC(=O)c2cccc(F)n2)ccc1F` belongs 89.2 nM; to `N#Cc1cc(NC(=O)c2ccccn2)ccc1Br`, 47 nM.
Consider `N#Cc1cc(NC(=O)c2ccccn2)ccc1I`, for which the concentration for half-maximal inhibition (IC50) in data set [1] is 172 nM.
As for `COc1cc(NC(=O)c2ccccn2)ccc1Br`, in data set [1], the half-inhibitory concentration (IC50) came out at 322 nM.
For the compound `O=C(Nc1cccc(Cl)c1)c1ccccn1`, the EC50 is 1200 nM in data set [9] and 330 nM in data set [10].
Turning to `Cc1ccnc(Nc2nc(-c3cn[nH]c3)c(C)s2)n1`, in data set [4], the t1/2 is reported as 7 min. In data set [10], this compound showed an EC50 of 9 nM. Further, the Peff in data set [8] stood at 257 ×10⁻⁶ cm/s.
For `O=C(Nc1ccc(Cl)c(OCF)c1)c1ccccn1`, the t1/2 in data set [4] is given as 5.8 min. In [8], this compound came in with a Peff of 272 ×10⁻⁶ cm/s. In addition, the 50% inhibitory concentration (IC50) in data set [1] was determined as 3.2 nM.
In [1], `COc1cc(NC(=O)c2cccc(F)n2)ccc1Cl` showed a concentration for half-maximal inhibition (IC50) of 7.3 nM.
